Laboratory results reported in ChEMBL document CHEMBL1128124, “Inhibitors of acyl-CoA: Cholesterol O-acyl transferase (ACAT) as hypocholesterolemic agents. 13. Design, synthesis and biological evaluation of tetrazole anilides as potent inhibitors of ACAT in vitro and hypocholesterolemic agents in vivo” (Bioorg Med Chem Lett, 1995).
pIC50: −log10 of the molar value.

Key:
Rattus norvegicus [1] = experiment: Percent change in total cholesterol in cholic acid (0.5%)-cholesterol (1.5%)-peanut oil (5.5%)-fed rats after administration of 30 mg/kg was determined; assay type: functional
Rattus norvegicus [2] = experiment: Percent change in total cholesterol in cholic acid (0.5%)-cholesterol (1.5%)-peanut oil (5.5%)-fed rats after administration of 3 mg/kg for 7 days was determined; assay type: functional
Rattus norvegicus [3] = experiment: Percent change in total cholesterol in cholic acid (0.5%)-cholesterol (1.5%)-peanut oil (5.5%)-fed rats after administration of 3 mg/kg was determined; assay type: functional
Rattus norvegicus [4] = experiment: Percent change in total cholesterol in cholic acid (0.5%)-cholesterol (1.5%)-peanut oil (5.5%)-fed rats after administration of 10 mg/kg for 7 days was determined; assay type: functional
Rattus norvegicus [5] = experiment: Percent change in total cholesterol in cholic acid (0.5%)-cholesterol (1.5%)-peanut oil (5.5%)-fed rats after administration of 30 mg/kg for 7 days was determined; assay type: functional
Rattus norvegicus [6] = experiment: Percent change in total cholesterol in cholic acid (0.5%)-cholesterol (1.5%)-peanut oil (5.5%)-fed rats after administration of 10 mg/kg for 7 days was determined.; assay type: functional
Rattus norvegicus [7] = experiment: Percent change in total cholesterol in cholic acid (0.5%)-cholesterol (1.5%)-peanut oil (5.5%)-fed rats after administration of 3 mg/kg for 7 days was determined.; assay type: functional
Rattus norvegicus [8] = experiment: Percent change in total cholesterol in cholic acid (0.5%)-cholesterol (1.5%)-peanut oil (5.5%)-fed rats after administration of 3 mg/kg was determined.; assay type: functional
Rattus norvegicus [9] = experiment: Percent change in total cholesterol in cholic acid (0.5%)-cholesterol (1.5%)-peanut oil (5.5%)-fed rats after administration of 30 mg/kg was determined.; assay type: functional
[10] = biological target: T1, Sterol O-acyltransferase 1 (Rattus norvegicus, UniProt O70536); experiment: Concentration required for the in vitro inhibition of Acyl coenzyme A:cholesterol acyltransferase (ACAT) in liver microsomes isolated from cholesterol-fed rats was determined; parameters: species or system Microsome
T1 sequence (O70536 whole entry): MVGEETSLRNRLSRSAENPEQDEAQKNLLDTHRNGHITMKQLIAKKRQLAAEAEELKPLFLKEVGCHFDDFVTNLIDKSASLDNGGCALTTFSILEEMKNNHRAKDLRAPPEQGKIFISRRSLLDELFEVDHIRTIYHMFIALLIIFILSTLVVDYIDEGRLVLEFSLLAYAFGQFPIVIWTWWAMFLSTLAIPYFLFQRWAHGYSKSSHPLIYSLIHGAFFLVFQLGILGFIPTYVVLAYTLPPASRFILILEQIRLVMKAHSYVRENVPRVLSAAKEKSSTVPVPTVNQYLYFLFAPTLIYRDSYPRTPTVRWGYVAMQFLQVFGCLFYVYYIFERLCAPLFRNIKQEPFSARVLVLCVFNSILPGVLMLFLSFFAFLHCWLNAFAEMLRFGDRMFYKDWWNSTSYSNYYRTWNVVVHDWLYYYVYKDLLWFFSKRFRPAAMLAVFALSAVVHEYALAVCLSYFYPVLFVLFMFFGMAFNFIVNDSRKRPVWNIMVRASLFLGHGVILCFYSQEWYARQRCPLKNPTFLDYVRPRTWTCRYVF

For `CCCCCCCCCCC(C)(C)C(=O)Nc1c(OC)cc(OC)cc1OC` [CL-976], the “Change TC” value (Rattus norvegicus [1]) was -57%, the “Change TC” value (Rattus norvegicus [2]) was -12% and the “Change TC” value (Rattus norvegicus [3]) was -15%. For the same molecule, the “Change TC” value (Rattus norvegicus [4]) was -17%.

`CCCCCCCCCCCCn1nnnc1C(C(=O)Nc1c(C(C)C)cccc1C(C)C)c1ccccc1` (stereo not drawn) was tested, and the “Change TC” value (Rattus norvegicus [1]) was -44% and the “Change TC” value (Rattus norvegicus [5]) was -24%.

`CCCCCCCCCCCCn1nnc(C(C(=O)Nc2c(OC)cc(OC)cc2OC)c2ccccc2)n1` (single isomer, unassigned; (+)) was tested, and the “Change TC” value (Rattus norvegicus [1]; 30 mg/kg) was -68%, the “Change TC” value (Rattus norvegicus [2]; 3 mg/kg) was -55% and the “Change TC” value (Rattus norvegicus [3]; 3 mg/kg) was -66%. The “Change TC” value (Rattus norvegicus [4]; 10 mg/kg) was -60%.

With `CCCCCCCCCCCCn1nnc(C(C(=O)Nc2c(OC)cc(OC)cc2OC)c2ccccc2)n1` (stereo not drawn) the “Change TC” value (Rattus norvegicus [6]) was -59%, the “Change TC” value (Rattus norvegicus [7]) was -23% and the “Change TC” value (Rattus norvegicus [8]) was -65%. For the same molecule, the “Change TC” value (Rattus norvegicus [9]) was -63%.

In the case of `CCCCCCCCCCCCn1nnnc1C(C(=O)Nc1c(OC)cc(OC)cc1OC)c1ccccc1` (stereo not drawn), the “Change TC” value (Rattus norvegicus [9]) was -38%.

In the case of `CCCCCCCCCCCCn1nnc(C(C(=O)Nc2c(C(C)C)cccc2C(C)C)c2ccccc2)n1` (stereo not drawn), the “Change TC” value (Rattus norvegicus [1]) was -49%, the “Change TC” value (Rattus norvegicus [5]) was -38% and the “Change TC” value (Rattus norvegicus [3]) was -46%.

In the case of `CCCCCCCCCCCCn1nnc(C(C(=O)Nc2c(OC)cc(OC)cc2OC)c2ccccc2)n1` (stereo in doubt; 8-(-)), the “Change TC” value (Rattus norvegicus [1]; 30 mg/kg) was -64%, the “Change TC” value (Rattus norvegicus [2]; 3 mg/kg) was 7% and the pIC50 [10] was 6.48. The “Change TC” value (Rattus norvegicus [3]; 3 mg/kg) was -47% and the “Change TC” value (Rattus norvegicus [4]; 10 mg/kg) was -11%.
